Source: publication PMC5018819 (Scientific Reports, 2016)
Read-outs that look alike come from different tables or passages of the source.

Experiments:
P. falciparum 3D7 [1] = test: ES-MS and ES-MS-MS lipidomic analysis of treated parasites; assay type: cell-based, Plasmodium falciparum; details: EC90 for 3 h; for effect on level of PC species: parents of 184 m/z spectra; for effect on endogenous PE species (in words): quantitative lipidomic analysis
Description: After washing, P. falciparum trophozoites were cultured for 18h without inhibitors, collected, treated with saponin to release the parasites from the red blood cells, and washed twice with PBS prior to Bligh & Dyer lipid extraction. Briefly, 5 × 10^8 parasite cells were dissolved in 375 μl 1:2 (v/v) chloroform:methanol and vigorously vortexed for 15 min. 125 μl of chloroform were added and 500 pmols of 1,2-dimyristoyl-sn-glycero-3-phosphocholine and 1,2-dipalmitoyl-sn-glycero-3-phosphoethanolamine were included in each sample as internal controls. 125 μl of water were added to the sample, vortexed and centrifuged at ×1000 g (RT) for 5 min to make the sample biphasic. Lower organic phase was collected and upper (aqueous) phase was re-extracted twice with 125 μls of chloroform. Lipid extracts were pooled, dried under nitrogen and stored at 4 °C for ESI-MS/MS analysis.
Lipid extracts, were dissolved in 15 μl of choloroform:methanol (1:2) and 15 μl of acetonitrile:iso-propanol:water (6:7:2) and analysed with a Absceix 4000 QTrap, a triple quadrupole mass spectrometer equipped with a nanoelectrospray source. Samples were delivered using a Nanomate interface in direct infusion mode (~125 nl/min). The lipid extracts were analysed in both positive and negative ion modes using a capillary voltage of 1.25 kV. MS/MS scanning (daughter, precursor and neutral loss scans) were performed using nitrogen as the collision gas with collision energies between 35–90 V. Each spectrum encompasses at least 50 repetitive scans. Tandem mass spectra (MS/MS) were obtained with collision energies between 35–90 V. Assignment of phospholipid and neutral lipid species is based upon a combination of survey, daughter, precursor and neutral loss scans, as well previous assignments. The identity of phospholipid peaks was verified using the LIPID MAPS: Nature Lipidomics Gateway (www.lipidmaps.org).

P. falciparum 3D7 [2] = test: microscopy of tightly synchronized asexual blood stage culture; assay type: cell-based, Plasmodium falciparum; details: EC90; synchronized ring stage parasites 6–12 hours post invasion
Description: P. falciparum 3D7 was cultured according to standard methods, and a 6 hours window was achieved by a combination of Percoll and sorbitol synchronizations. Briefly, schizonts and late trophozoites were isolated from earlier stages according to their density by centrifugation on a continuous gradient of 60% Percoll. The resulting schizonts were allowed to invade uninfected red blood cells for 6 hours and newly infected red blood cells were subjected to a 5% sorbitol treatment for 10 minutes at 37 °C. […] Thin blood smears were Giemsa stained every 6 hours until an entire intraerythrocytic cycle was completed.

HsCKα1 = molecular target: T1, HsCKα1 (Homo sapiens, UniProt P35790); test: IC50 determination, spectrophotometric CK/EK enzyme assay; assay type: biochemical; details: 0.5 mM each substrate
T1 construct: made in house
T1 sequence (P35790 whole entry): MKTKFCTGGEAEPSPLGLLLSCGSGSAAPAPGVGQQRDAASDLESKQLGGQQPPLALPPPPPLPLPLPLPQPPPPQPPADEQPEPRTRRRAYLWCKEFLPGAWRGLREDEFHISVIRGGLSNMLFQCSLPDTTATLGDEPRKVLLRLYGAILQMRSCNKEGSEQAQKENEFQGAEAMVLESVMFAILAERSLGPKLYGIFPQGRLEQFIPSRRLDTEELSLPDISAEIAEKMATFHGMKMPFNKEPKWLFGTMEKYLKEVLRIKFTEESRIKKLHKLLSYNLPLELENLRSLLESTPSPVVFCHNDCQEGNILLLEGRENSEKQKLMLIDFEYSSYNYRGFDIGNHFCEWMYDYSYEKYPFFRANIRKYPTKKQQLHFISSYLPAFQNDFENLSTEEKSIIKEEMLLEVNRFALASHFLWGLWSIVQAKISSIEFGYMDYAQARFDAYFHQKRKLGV
Description: (§1) A continuous spectrophotometric 96-well plate assay was established for CK and EK activity based on an assay described. […] The reaction was initiated by addition of enzyme or substrate, as appropriate, and the rate of reaction was monitored by following the decrease in absorbance at 341 nm for 10 min at room temperature using a Thermo Multiska spectrophotometer. Experiments were carried out to ensure that coupling enzymes were not rate-limiting under any of the conditions used and control experiments lacking substrates and/or enzyme were carried out to correct for any background rate.
(§2) The enzyme was pre-incubated for 5 min with varying concentrations of inhibitor prior to reaction being started by addition of 0.5 mM each substrate. The IC50 values were estimated using Grafit 5 (Erithacus Software Ltd).

PfCK [3] = molecular target: T2, PfCK (Plasmodium falciparum, UniProt Q8IM71); test: as above; assay type: biochemical; details: for IC50: 0.5 mM each substrate
T2 construct: made in house
T2 sequence (Q8IM71 1-440): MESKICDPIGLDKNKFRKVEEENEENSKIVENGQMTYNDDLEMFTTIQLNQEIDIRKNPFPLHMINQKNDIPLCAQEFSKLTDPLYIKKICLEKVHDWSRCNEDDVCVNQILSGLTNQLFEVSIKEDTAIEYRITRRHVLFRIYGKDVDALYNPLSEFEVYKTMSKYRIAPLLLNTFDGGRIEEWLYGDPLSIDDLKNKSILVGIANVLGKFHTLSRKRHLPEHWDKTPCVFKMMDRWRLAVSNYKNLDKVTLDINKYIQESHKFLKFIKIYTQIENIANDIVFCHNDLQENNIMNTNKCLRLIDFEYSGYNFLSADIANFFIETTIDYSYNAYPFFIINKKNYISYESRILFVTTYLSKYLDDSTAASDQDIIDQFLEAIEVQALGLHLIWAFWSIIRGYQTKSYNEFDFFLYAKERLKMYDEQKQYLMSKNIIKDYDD
Description: as §1, §2

PfEK = molecular target: T3, PfEK (Plasmodium falciparum, UniProt Q8IIB7); test: IC50 determination, spectrophotometric EK enzyme assay; assay type: biochemical, P. falciparum; details: for IC50: Etn as substrate, 0.5 mM each substrate
T3 sequence (Q8IIB7 2-420): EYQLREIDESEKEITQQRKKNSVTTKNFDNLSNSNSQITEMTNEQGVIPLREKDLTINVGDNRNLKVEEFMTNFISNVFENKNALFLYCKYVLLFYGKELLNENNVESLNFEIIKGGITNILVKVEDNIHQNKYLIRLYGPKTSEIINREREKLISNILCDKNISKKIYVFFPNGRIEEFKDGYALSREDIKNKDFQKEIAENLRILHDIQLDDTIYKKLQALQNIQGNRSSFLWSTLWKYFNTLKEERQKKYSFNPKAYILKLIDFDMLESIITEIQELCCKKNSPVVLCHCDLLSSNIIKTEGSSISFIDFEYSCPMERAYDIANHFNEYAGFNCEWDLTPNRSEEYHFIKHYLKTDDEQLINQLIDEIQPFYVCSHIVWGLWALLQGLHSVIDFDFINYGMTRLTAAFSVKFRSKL
Description: as §1, §2

PfCK [4] = molecular target: T2, PfCK; test: Ki determination and mode of inhibition; assay type: biochemical
Description: as §1
Activity was measured at 3–4 different concentrations of inhibitor and a fixed concentration of one substrate (as specified in the standard assay) while the second substrate was varied. GraphPad Prism 6 (GraphPad Software Inc.) was used to fit data to different inhibition models with the best fit being determined by Aike’s Informative Criteria. Kis were estimated from the best-fit model and results were reinforced by linear re-plots of the data (Lineweaver Burke, Dixon, s/v against I)[38].

P. falciparum = test system: P. falciparum; parameters: method as in PMID 25089811; details: blood stages of the parasite, in vitro; read-out: IC50 against P. falciparum; cited from earlier work
[5] = Etn as substrate, read-out: IC50 HsCK, Etn
[6] = read-out: IC50 HsCK, Cho, Cho as substrate
[7] = Etn as substrate, read-out: IC50 PfCK, Etn
[8] = read-out: IC50 PfCK, Cho, Cho as substrate
[9] = ATP as variable substrate, read-out: Ki, PfCK, ATP
[10] = Etn as variable substrate, read-out: Ki, PfCK, Etn
[11] = alpha factor of mixed inhibition, Cho as variable substrate
[12] = competitive inhibition, approximate value, read-out: Ki, PfCK, with respect to Etn
[13] = read-out: Ki, PfCK, Cho, Cho as variable substrate
[14] = read-out: Ki, PfCK, against Cho, mixed inhibition, approximate value

SMILES	effect on level of PC species (P. falciparum 3D7 [1])	effect on endogenous PE species (in words) (P. falciparum 3D7 [1])	effect on parasite development (P. falciparum 3D7 [2])	IC50 (HsCKα1; [5]) [µM]	IC50 (HsCKα1; [6]) [µM]	inhibition towards PfCKs choline kinase activity (in words) (PfCK [3]; Cho as substrate)	IC50 (PfCK [3]; [7]) [µM]	IC50 (PfCK [3]; [8]) [µM]	inhibition towards PfEK (in words) (PfEK)	IC50 (PfEK) [µM]	mode of inhibition, PfCK, ATP (PfCK [4]; ATP as variable substrate)	Ki (PfCK [4]; [9]) [µM]	mode of inhibition, PfCK, Cho (PfCK [4]; Cho as variable substrate)	mode of inhibition, PfCK, Etn (PfCK [4]; Etn as variable substrate)	Ki (PfCK [4]; [10]) [µM]	α, PfCK, Cho (PfCK [4]; [11])	Ki (PfCK [4]; [12]) [µM]	Ki (PfCK [4]; [13]) [µM]	Ki (PfCK [4]; [14]) [µM]	IC50 (P. falciparum) [µM]	also measured
CN(C)c1cc[n+](Cc2ccc(-c3ccc(C[n+]4ccc(N5CCCC5)cc4)cc3)cc2)cc1.[Br-].[Br-] [BR23]	do not affect	significant reduction	arrest of parasite development	0.23	0.58	moderate inhibition	12	276	neither BR23 nor BR25 showed any inhibition	> 500	Competitive	116	Mixed	Competitive	4.1	3.915	~4	38.2	~35	0.003	reduction of endogenous PE species (P. falciparum 3D7 [1]; ES-MS-MS parents of 196 m/z, internal PE standard): > 90%
CN(C)c1cc[n+](Cc2ccc(CCCCc3ccc(C[n+]4ccc(N5CCCC5)cc4)cc3)cc2)cc1.[Br-].[Br-] [BR25]	do not affect	almost complete loss	arrest of parasite development	0.18	0.56	moderate inhibition	6	103	neither BR23 nor BR25 showed any inhibition	> 500	Mixed	65.5	Mixed	Competitive	4	2.025	~4	31.9	~35	0.002	α, PfCK, ATP (PfCK [4]; alpha factor of mixed inhibition, ATP as variable substrate): 2.37
